Consider 35 compounds from a melting point compilation (Tetko et al.; mined from patent text by program, amines drawn as free bases though some values may be those of a salt).

The melting point is the temperature of the solid-liquid transition.

In turn, `CC1(C)SC2C(NC(c3ccccc3)(c3ccccc3)c3ccccc3)C(=O)N2C1C#N` (stereo not given) came in with a melting point of 116 to 119 °C.
Then `COCCCN1CC[C@@H](CNC(=O)c2cc(Cl)c(N)c3c2OC(C)(C)C3)[C@H](O)C1` (relative stereo), with 97 °C.
In turn, `CC(C)c1nccn1Cc1ccc2c(c1)-c1[nH]nc(-c3ccsc3)c1C2` returned a melting point of 128 to 129 °C.
For the compound `C#CCOc1cc(-c2ncc(C(F)(F)F)cc2Cl)ccc1Cl`, the melting point was 102 to 103 °C.
For `CCCCCOc1ccc(C(=O)NCCCCCCCNC(=O)c2ccc(OCCCCC)cc2)cc1`, the melting point was in the range of 155 to 156 °C.
Then `O=C(O)C(=O)c1ccc(OCCOc2ccc(Cl)cc2)cc1`, with 121 to 122 °C.
Then `CCN(CC)c1ccc(S(=O)(=O)CCCCC(=O)O)cc1`, with 106 to 108 °C.
In turn, `CCCN(CCC)C(=O)Nc1nn(Cc2ccccc2)cc1C(=O)OCC` displayed a melting point of 114 to 115 °C.
Then `CC(C(=O)O)(c1ccc(N2CCOCC2)cc1)c1ccc(N2CCOCC2)cc1`, with 217 to 223 °C.
Then `CCOC(=O)Cc1ccc(NC(=O)C(CCc2ccccc2)NS(=O)(=O)c2ccc(Cl)cc2)cc1` (racemic), with 114 to 115 °C; and `COC(=O)c1cccc2c([N+](=O)[O-])cccc12`, with 105 °C; and `COc1cc2nc(N)nc(-c3ccc(O)c(F)c3)c2cc1OC`, with 268 to 270 °C.
Then `ON=C1CCC(c2ccccc2)CC1` (stereo not given), with 110 to 112 °C; and `N#Cc1cccc2c1CCCc1ccccc1-2`, with 109 to 111 °C; and `CCCCCCCCNc1nc(NCC(O)C2CC(C)(C)NC(C)(C)C2)nc(NCC(O)C2CC(C)(C)NC(C)(C)C2)n1` (stereo not given), with 117 to 119 °C.
For the compound `CSc1ccc(C(N)=S)cc1`, the melting point was 176 to 178 °C.
For the compound `CC(=NOCCC(=O)O)c1ccc(Cl)cc1`, the melting point was 80 to 83 °C.
On to `CC(=O)NCC1CN(c2ccc(N3CCN(c4nccs4)CC3)c(F)c2)C(=O)O1` (stereo not given), for which the melting point is 205 to 206 °C.
Compound `Cc1c(Cc2cccnc2)c2ccccc2n1CCc1nnn[nH]1` displayed a melting point of 173 °C.
For `Cc1ccc(CS(=O)c2nc3cc4c(cc3[nH]2)OCO4)nc1` (stereo not given), the melting point was in the range of 185 to 187 °C.
Then `O=C1CS(=O)(=O)c2ccccc21`, with 133 to 134 °C; and `NC(=O)c1ccc(-c2cc3cc(C4=NNC(=O)CC4)ccc3[nH]2)cc1`, with greater than 300 °C.
Then `CN1C(=O)C(C)(C)N=C(c2ccccc2F)c2cc(N3C(=O)NC(C)(C)C3=O)ccc21`, with 286 to 287 °C; and `Nc1cc(OCC(CO)OCP(=O)(O)O)nc(N)n1` (racemic), with 213 °C.
`CCC=Cc1ncc(/C=C(\Cc2cccs2)C(=O)O)n1Cc1ccccc1Cl` gave a melting point of 224 to 226 °C.
Regarding `COc1cc(Cc2cnc(N)nc2N)cc(OC)c1CN`, the melting point is 176 to 178 °C.
Compound `O=C1N(Cc2cc3ccccc3o2)c2ccccc2C12COc1cc3c(cc12)OCO3` (stereo not given) displayed a melting point of 167 to 168 °C.
The compound `COc1ccc(C(=O)Nc2ccc3sc(C)nc3c2Cl)cc1` displayed a melting point of 182 °C.
Then `O=C(Nc1ccccc1)Nc1ccnc(C(F)(F)F)c1`, with 169 to 171 °C; and `CON=C(C)CCc1nc2c(N)nc3ccccc3c2n1CC(C)(C)O`, with 182 to 184 °C; and `CCOC(=O)CSc1nnc(S)s1`, with 67 to 68 °C.
`O=c1ccn(-c2ccc(OC(F)F)cc2)nc1-c1ccnn1-c1ccccc1` gave a melting point of 175 to 176 °C.
Then `COc1cc(N2CCN([C@H]3CC[C@@H](c4cccs4)CC3)CC2)c2ncccc2c1`, with 184 to 186 °C; and `CC(C)C(=O)N(O)Cc1ccc2c(c1)Cc1ccccc1-2`, with 163 to 166 °C; and `COc1cc(OC)nc(C(CC(=O)C(C)(C)C)C(=O)NS(C)(=O)=O)n1` (stereo not given), with 97 to 98 °C.
